Reference: a compilation of properties of binary mixtures (doi:10.1016/j.molliq.2012.02.019)

Assay: xn = mol fraction of the nth substance listed
Details: 101 kPa

COC(=O)OC + CCCCCCCC[N+](C)(CCCCCCCC)CCCCCCCC.[Cl-]
x1 = 1
Details | electrical conductivity [S/m] | viscosity [mPa·s]
303.15 K | 0.0001 | 0.55
308.15 K | – | 0.49

CCCCCCCC[N+](C)(CCCCCCCC)CCCCCCCC.[Cl-] + COC(=O)OC
Details | electrical conductivity, 298.15 K [S/m] | electrical conductivity, 303.15 K [S/m] | electrical conductivity, 308.15 K [S/m] | electrical conductivity, 313.15 K [S/m] | electrical conductivity, 318.15 K [S/m] | viscosity, 298.15 K [mPa·s] | viscosity, 303.15 K [mPa·s] | viscosity, 308.15 K [mPa·s] | viscosity, 313.15 K [mPa·s] | viscosity, 318.15 K [mPa·s]
x1 = 0.002 | 0.0001 | – | 0.0002 | 0.0003 | 0.0004 | – | – | – | – | –
x1 = 0.006 | – | 0.0003 | 0.0004 | – | 0.0006 | – | – | – | – | –
x1 = 0.011 | 0.0006 | 0.0008 | 0.0009 | 0.001 | 0.0012 | – | – | – | – | –
x1 = 0.015 | 0.0009 | – | 0.0013 | 0.0014 | 0.0015 | – | – | – | – | –
x2 = 0 | – | 0.0035 | 0.0049 | 0.0066 | 0.0087 | – | 1602 | 1067 | 770 | 570
x2 = 0.35 | 0.0047 | 0.0064 | 0.0084 | 0.0108 | 0.0138 | 530 | 400 | 304 | 238 | 200
x2 = 0.55 | 0.0098 | – | 0.016 | – | 0.0249 | 158 | – | 98 | – | 65.2
x2 = 0.67 | – | 0.019 | 0.0236 | 0.0287 | 0.0347 | – | 47.1 | 38.66 | 32.21 | 27.29
x2 = 0.76 | 0.0211 | 0.0259 | – | 0.038 | 0.0452 | 22.51 | 18.86 | – | 13.72 | 11.84
x2 = 0.83 | 0.0235 | 0.0287 | 0.0345 | 0.041 | 0.0482 | 10.27 | 8.87 | 7.71 | 6.91 | 6.15
x2 = 0.88 | – | 0.031 | 0.037 | 0.0438 | 0.0513 | – | 4.56 | 4.11 | 3.7 | 3.36
x2 = 0.92 | 0.0171 | 0.0204 | 0.0246 | – | 0.0342 | 2.52 | 2.27 | 2.07 | – | 1.75
x2 = 0.95 | 0.0076 | 0.0094 | – | 0.014 | 0.0167 | 1.41 | 1.3 | – | 1.13 | 1.06
x2 = 0.98 | 0.0012 | 0.0016 | – | – | 0.002 | 0.79 | 0.75 | – | – | 0.64
